Test [1] addresses T1, Heat shock protein HSP90 (Homo sapiens) (UniProt P07900+P08238). The test is described as follows: Inhibition of HSP90 in human MCF7 cells assessed as cell cycle arrest by measuring accumulation at S phase at 2.5 uM measured after 24 hrs by RNaseA/propidium iodide staining based flow cytometric analysis (reference value: 7.08 %). The arrangement: scale not given: the % may be the effect or the level left. (In general: Flow cytometry measures light scatter and fluorescence of single cells or particles in a stream.)

Test [2] concerns the target T1, Heat shock protein HSP90 (Homo sapiens). The test is described as follows: Inhibition of HSP90 in human MCF7 cells assessed as cell cycle arrest by measuring accumulation at G2/M phase at 2.5 uM measured after 24 hrs by RNaseA/propidium iodide staining based flow cytometric analysis (reference value: 25.08 %). More on the design: scale not given: the % may be the effect or the level left.

For test [3] the target is unchanged. As to the kind of experiment: Inhibition of HSP90 in human MCF7 cells assessed as cell cycle arrest by measuring accumulation at S phase at 5 uM measured after 24 hrs by RNaseA/propidium iodide staining based flow cytometric analysis (reference value: 7.08 %). The arrangement: scale not given: the % may be the effect or the level left.
For test [4] the target is unchanged. As to the kind of experiment: Inhibition of HSP90 in human MCF7 cells assessed as cell cycle arrest by measuring accumulation at G0/G1 phase at 10 uM measured after 24 hrs by RNaseA/propidium iodide staining based flow cytometric analysis (reference value: 39.10 %). The arrangement: scale not given: the % may be the effect or the level left.
Test [5] has the same target. The test is described as follows: Inhibition of HSP90 in human MCF7 cells assessed as induction of apoptosis by measuring live cells at 5 uM measured after 24 hrs by annexinV-FITC/propidium iodide staining based flow cytometry (reference value: 90.77 %). More on the design: scale not given: the % may be the effect or the level left. Format: cell-based.
Test [6] has the same target. The test is described as follows: Inhibition of HSP90 in human MCF7 cells assessed as induction of apoptosis by measuring live cells at 10 uM measured after 24 hrs by annexinV-FITC/propidium iodide staining based flow cytometry (reference value: 90.77 %). More on the design: scale not given: the % may be the effect or the level left. Format: cell-based.
For test [7] the target is unchanged. As to the kind of experiment: Inhibition of HSP90 in human MCF7 cells assessed as induction of apoptosis by measuring late apototic cells at 10 uM measured after 24 hrs by annexinV-FITC/propidium iodide staining based flow cytometry (reference value: 7.91 %). The class given is cell-based. The arrangement: scale not given: the % may be the effect or the level left.

For test [8] the target is unchanged. As to the kind of experiment: Inhibition of HSP90 in human MCF7 cells assessed as induction of apoptosis by measuring total apoptotic and dead cell population at 4 uM measured after 24 hrs by annexinV-FITC/propidium iodide staining based flow cytometry (reference value: 9.23 %). The arrangement: scale not given: the % may be the effect or the level left.
The target is the same in test [9]. As to the kind of experiment: Inhibition of HSP90 in human MCF7 cells assessed as induction of apoptosis by measuring total apoptotic and dead cell population at 0.5 to 4 uM measured after 24 hrs by annexinV-FITC/propidium iodide staining based flow cytometry. Conditions: dose microM 0.5-4, time 24.0 hrs.
For test [10] the target is unchanged. As to the kind of experiment: Inhibition of HSP90 in human MCF7 cells assessed as induction of mitochondrial membrane potential loss by measuring cell population with mitochondrial membrane potential collapse at 2.5 uM after 24 hrs by JC1 staining-based flow cytometry analysis (reference value: 6.53 %). The arrangement: scale not given: the % may be the effect or the level left.

The target is the same in test [11]. The test is described as follows: Inhibition of HSP90 in human MCF7 cells assessed as induction of mitochondrial membrane potential loss by measuring cell population with mitochondrial membrane potential collapse at 5 uM after 24 hrs by JC1 staining-based flow cytometry analysis (reference value: 6.53 %). The arrangement: scale not given: the % may be the effect or the level left.

The target is the same in test [12]. As to the kind of experiment: Inhibition of HSP90 in human MCF7 cells assessed as induction of mitochondrial membrane potential loss by measuring cell population with mitochondrial membrane potential collapse at 2.5 to 10 microM after 24 hrs by JC1 staining-based flow cytometry analysis. As to conditions: dose microM 2.5-10, time 24.0 hrs.

Turning to `Nc1nc(-c2ccc(Br)cc2)cc(-c2cn(-c3ccc(Cl)cc3)nc2-c2ccc([N+](=O)[O-])cc2)n1`, the Activity in test [1] was 7.74%; in [2], 27.2%; in [3] it was 5.15%; in test [4], 25.2%; in test [5], 77.4%; in test [6] it was 62.3%. Also, the Activity in test [7] turned out to be 30.5%; in test [8], 34.7%; in test [10], 12.7%; in [11] it was 21.8%. Moreover, the inhibition result in test [9] and in test [12] was “Dose-dependent effect” in each case.

These data come from ChEMBL document CHEMBL4725367, “Novel anticancer Hsp90 inhibitor disubstituted pyrazolyl 2-aminopyrimidine compound 7t induces cell cycle arrest and apoptosis via mitochondrial pathway in MCF-7 cells” (Bioorg Med Chem Lett, 2020).
